This note sets out measurements from a melting point compilation (Tetko et al.; mined from patent text by program, amines drawn as free bases though some values may be those of a salt).

In general, melting point refers to the temperature of the solid-liquid transition.

Consider `CCc1cc(C#N)cc(C)c1CC(=O)OC`, for which the melting point is 65 to 72 °C.
In the case of `CCCSc1nc(-c2ccc(OC)cc2)c(-c2ccc(OC)cc2)s1` it was 58 to 60 °C.
The compound `O=C(CCC1CCNCC1)c1ccc2[nH]c3ccccc3c2c1` had a melting point of 206 to 209 °C.
The same measure for `CC(=O)c1cc2nc(S(=O)Cc3nccc4c3OCO4)[nH]c2cc1C` (configuration not stated): 178 to 180 °C; for `Cc1cc(-c2cc(C(F)(F)F)n3ncc(C(=O)Nc4cccc(S(=O)(=O)N5CCOCC5)c4)c3n2)ccc1C(F)(F)F`: 272 °C; for `CCC1c2cc3c(cc2C(C=Cc2ccc(NC(C)=O)cc2)=NN(C(C)=O)C1C)OCO3` (configuration not stated): 137 to 140 °C.
In the case of `CC1=NC(NC(=O)Nc2cccc(C)n2)C(=O)N(CC(=O)N2CC3CCC(CC3)C2)c2c(C)cccc21` (configuration not stated) it was 151 to 152 °C; in that of `Nc1nc2cc(Br)ccc2c2c1nc1n2CCCO1`, 273 to 276 °C.
The same measure for `CCN(CC)C(=O)c1ccccc1C(C)(C)C`: 38.5 to 40.5 °C; for `O=C(OC(c1ccccc1)c1ccccc1)C1=CCC2C1C(=O)C2(Cl)Cl` (configuration not stated): 96 to 97 °C.
`CC(=O)OCCC1=CCC2C3CCC4=CCC=CC4(C)C3C(O)CC12C` (configuration not stated) came in with a melting point of 203 to 205 °C.
In the case of `Oc1ccc(P(c2ccc(O)cc2)c2ccc(O)cc2)cc1`, the melting point is 128 to 133 °C.
In the case of `COc1ccc(-c2nc(-c3cccs3)c[nH]2)cc1Cl` it was 82 to 85 °C.
In the case of `CCOC(=O)c1cc2nc(C)oc2nc1C(=O)OCC` it was 101 to 103 °C; in that of `O=C(CCCCc1ccc2c(c1)OCO2)NC1CCCCC1`, 145 to 146 °C; in that of `N#C[C@@H]1C[C@@H]2C[C@@H]2N1C(=O)[C@@H](NC(=O)OCc1ccccc1)C12CC3CC(CC(O)(C3)C1)C2`, 105 to 106 °C.
In the case of `O=C1CNC(SCc2ccccn2)=N1` it was 105 to 107 °C.
Regarding `N#Cc1cnc2cc(Cl)c([N+](=O)[O-])cc2c1Nc1ccc(F)c(Cl)c1`, the melting point lay in the range of 259 to 263 °C.
The same measure for `CC1CCN(C(=O)[C@H](CCCSc2ccccn2)NS(=O)(=O)c2ccc3ccccc3c2)CC1`: 131 to 132 °C.
`CCCOc1ccccc1-c1nc2nc(CC)ncc2c(=O)[nH]1` returned a melting point of 118 to 119 °C.
The same measure for `COc1cc2nc3ccc(F)cc3sc-2cc1=O`: 252 °C; for `O=C1c2ccccc2C(=O)N1CCCCn1ccnc1`: 75 to 77 °C; for `COCCN1CCN(CCc2ccccc2Nc2ncnc3[nH]cc(C(=O)c4ccccc4)c23)CC1`: 192 to 193 °C.
In the case of `Cc1cn(-c2cc(C#N)cc(C(F)(F)F)c2)cn1` it was 127 to 128 °C; in that of `CN(C(=O)CN(C(=O)CNC(=O)Nc1cccc(CCO)c1)c1ccccc1)c1ccccc1`, 152 °C.
The same measure for `COc1ccc(S(=O)(=O)c2ncccn2)cc1`: 72 °C.
In turn, `NNc1nnc(C(=O)C(F)(F)F)nc1-c1ccccc1` returned a melting point of 193 to 194 °C.
In the case of `COc1ccccc1Oc1c(Cl)nc(-c2ccoc2)nc1NS(=O)(=O)c1ccc(C(C)(C)C)cc1` it was greater than 300 °C; in that of `CCCCCCCCCCCCCCCCCC(=O)Oc1cc(C(C)(C)C)c(O)c(C(C)(C)C)c1`, 35 to 39 °C; in that of `CC1(C)CC(NC(=O)c2cc(Cl)cc(NC=O)c2O)CC(C)(C)C1`, 214 to 215 °C.
The same measure for `CC(=O)Oc1cccc2c1N=CC1CCCN1C2=O` (configuration not stated): 143 to 146 °C; for `CCCOC(=O)c1cc(OC)c(OC)c(OCC)c1-c1c(C(=O)OC)cc(OC)c2c1OCO2`: 74.5 to 76 °C; for `CC(=O)c1ccc(-c2ccc(Br)cc2)c(Br)c1`: 82.5 to 84.5 °C.
In the case of `CC(=O)Nc1cc(C)c(N)c(C)c1[N+](=O)[O-]` it was 197 °C.
`CCOC(=O)CN1CCN(CC(O)COc2cc3c(Nc4cccc(Br)c4)ncnc3cc2OC)CC1` (configuration not stated) returned a melting point of 118 to 122 °C.
In the case of `CC(C)(C)OC(=O)NCC#Cc1cccnc1` it was 74 to 78 °C; in that of `CCCOc1ncc(I)cc1-c1nc2c(CC)n(Cc3ccccn3)nc2c(=O)[nH]1`, 229 to 234 °C.
As for `O=C1c2ccccc2C(=O)N1Cc1noc(-c2ncn3c2[C@@H]2CCN2C(=O)c2ccccc2-3)n1`, the melting point fell in the range of 290 to 292 °C.
In the case of `COc1ccccc1-c1nc2cc(NC(=O)c3c(C(=O)N4CCC4)cnn3C)ccn2n1` it was 258 °C; in that of `CN(C)Cc1cc(C(=O)c2cccs2)cc(C(C)(C)C)c1O`, 132 to 134 °C.
The same measure for `COc1cc(C(=O)O)ccc1CNC(=O)C1Cc2ccccc2N1S(=O)(=O)c1ccc(-c2cccc(C(F)(F)F)c2)cc1` (configuration not stated): 108 to 120 °C.
In turn, `COc1ccc(/C=N/Nc2ccccc2C(=O)O)cc1OC1CCCC1` showed a melting point of 174 to 176 °C.
In the case of `C=CCCN(c1ccc(OC)cc1)S(=O)(=O)c1c(F)c(F)c(F)c(F)c1F` it was 64 to 66 °C; in that of `O=S(=O)(c1ccc(CO)cc1)N1CCCC1c1ccc(F)cc1` (racemic), 107 °C.
The same measure for `N#Cc1ccc(NC2CCN(Cc3cccc(C(F)(F)F)c3)CC2)nn1`: 170 °C; for `CCOC(=O)Nc1ccc(C(c2ccccc2)n2ccnc2)cc1C=O` (configuration not stated): 107 °C.
In the case of `O=C(/C=C/c1cccc(S(=O)(=O)N2CCN(CC(c3ccccc3)c3ccccc3)CC2)c1)NO` it was 117 °C; in that of `FC(F)(F)c1cccc(-c2c[nH]c(C3CCN(c4ncnc5[nH]ncc45)CC3)n2)c1`, 281 °C; in that of `COc1ccc(CS(=O)(=O)Cc2ccc(OC)cc2OC)c(OC)c1`, 104 to 106 °C.
`CCCC(=O)ONC(=N)c1ccc(NC(=O)CCCC(=O)Nc2ccc(C(=N)NOC(=O)CCC)cc2)cc1` registered a melting point of 194 to 196 °C.
In the case of `CN1C(=O)C(NC(=O)OC(C)(C)C)CC(=O)c2ccccc21` (configuration not stated) it was 205 to 206 °C; in that of `O=C1NC(=O)C(Br)(c2ccc(Oc3ccccc3)cc2)C(=O)N1`, 125 to 127 °C.
The same measure for `CC(c1ccc2c(c1)C(=O)c1ccccc1C2=O)N1CCNCC1` (configuration not stated): 97.7 to 98.1 °C; for `C=CCN1C(=O)c2cscc2Nc2ccccc21`: 105 to 106 °C; for `N#Cc1c(NCCCN2CCCC2)ncc2c1-c1ccccc1C(c1ccc(Cl)c(Cl)c1)C2` (configuration not stated): 104 to 110 °C.
The same measure for `Cc1cn(-c2cc(C)c(N)c(C#N)c2)c(C)n1`: 214 to 217 °C; for `Cc1ccc(-c2nc3cccnc3n2CC(N)=O)s1`: greater than 250 °C.
Compound `O=C(O)Cc1cccc(-c2cccc(COC3OC(CO)C(O)C(O)C3O)c2)c1` (configuration not stated) gave a melting point of 74 to 75 °C.
In the case of `CC(C)CC(=O)N[C@H]1CC[C@H](CCN2CCC(c3cccc4c3CCO4)CC2)CC1` it was 197 °C; in that of `CC1CC(=O)NN=C1c1ccc2c(ccc(=O)n2C)c1` (configuration not stated), 248 to 251 °C.
For the compound `CCN(CC)C(=O)c1cc(OC)c(OC)cc1-c1c(C(=O)N(CC)CC)ccc2c1OCO2`, the melting point fell in the range of 148 to 149 °C.
In the case of `Cc1c(Cl)cnc(N)c1F` it was 136 to 138 °C.
